Laboratory results as given in US20090075898A1, “Complement C3A Derived Peptides and Uses Thereof” (Yeda Research and Development Co. Ltd. at the Weizmann …, priority 2005, published 2009).
Square brackets hold non-standard residues; d marks the D form. Ends that are not written are not given here.

Columns and labels:
[1] = tested on: RBL-2H3 cells; details: for Inhibition of IgE-mediated β-hexosaminidase release from RBL-2H3 cells: peptides 5 min prior to suboptimal (5 ng/ml) antigen dose; for Inhibition of IgE-mediated β-hexoseaminidase secretion from RBL-2H3 (FIG. 1B): 250 μg of peptide
[2] = tested on: bone marrow derived mast cells (BMMC); test: Secretory response (β-hexosaminidase release) of bone marrow derived mast cells; type: cell-based, mouse
Protocol: Cells. Bone marrow derived mast cells (BMMC) were prepared from Balb/c mice as described by Nagao et al. (Science 212: 333-335, 1981). After 3 weeks, an approximately 95% pure mast cell population was obtained, showing high expression of FcεRI and stem cell factor receptor (c-kit), as measured by flow cytometry.
Secretory response of mast cells.
Similar experiments were carried out using bone-marrow derived mast cells (BMMC). […] The control peptide of the sequence DVSNYITR had no effect on either system.

[3] = tested on: Lyn; test: Phosphorylation of Lyn in RBL-2H3 cells, Western blot; type: cell-based, rat; details: for Phosphorylation of Lyn: cells stimulated by antigen in the presence of peptide
Protocol: Immunoprecipitation and Western blot. Mast cells were seeded in 10 cm Petri dishes (7×10^6 cells/dish) and saturated with A2IgE at 37° C. in DMEM overnight. […] The reaction was terminated by 500 μl lysis buffer (1% Triton X-100, 50 mM HEPES, 100 mM NaF, 10 mM EDTA, 2 mM sodium orthovanadate, 10% glycerol, 10 mM sodium pyrophosphate, protease inhibitor cocktail 1:200, pH 7.4) per dish. The cells were scraped and the protein content of the post nuclear supernatants was adjusted to equal values using the Bradford-assay prior to precipitation by PT-66 phosphotyrosine specific antibody coated beads (10 μl beads per sample). The proteins were eluted by sample buffer containing 2-mercaptoethanol and were separated by SDS-PAGE, electrotransferred onto a nitrocellulose membrane and developed using the indicated antibodies and detected by ECL.
(§1) These are known to include phosphorylation by the src-family PTK Lyn of the ITAMs of the FcεRI β and γ subunits.
(§2) The inhibitory action of the peptide C3a31 on the FcεRI coupling cascade was also investigated using the rat mucosal-type RBL-2H3 line.

[4] = tested on: passive systemic anaphylaxis in mice; test: Passive systemic anaphylaxis, blood histamine; type: in vivo, mouse; details: peptide solution onto the nostrils before DNP-HSA antigen
Protocol: Passive Systemic Anaphylaxis. Mice (Balb/c) were anesthetized with 300-400 μl of avertin and injected with 3 μg of the IgE class DNP-specific monoclonal antibody (SPE-7, Sigma) in 200 μl PBS by retroorbital injection (or tail vein). After 24 hours, mice were anesthetized with 300-400 μl of avertin and exposed to ca. 100 μl of the indicated peptide (inhibitory, SEQ ID NO:11, a control reversed peptide of SEQ ID NO:35 or peptide GAKDGNEYI-COOH of SEQ ID NO:36) solution in PBS positioned onto the nostrils. This was followed by injection of the antigen (DNP-derivatized human serum albumin, HSA, 100 μg in 200 μl of PBS) or PBS only, by retroorbital injection (or tail vein). After 1.5 minutes, mice were sacrificed by cervical dislocation and cardiac puncture performed. Heparin-rinsed syringes were now used for aspiration. Blood samples were spun at 4 degrees for 10 minutes at 8000 rpm in tabletop. Histamine was assayed by the Immunotech protocol for competitive ALP assay.
The effect of C3a derived peptides on passive systemic anaphylaxis in mice was examined. […] The reverse peptide denoted C3a55 amide was ineffective (FIG. 5). A control group was treated with a non-relevant peptide having the amino acid sequence GAKDGNEYI-COOH of SEQ ID NO:36 prior to the injection of the antigen DNP-HSA.

[5] = tested on: FcεRI β chain; test: Phosphorylation of FcεRI β chain in RBL-2H3 cells, Western blot; type: cell-based, rat; details: cells stimulated by antigen in the presence of peptide
Protocol: Immunoprecipitation and Western blot. Mast cells were seeded in 10 cm Petri dishes (7×10^6 cells/dish) and saturated with A2IgE at 37° C. in DMEM overnight. After washing they were treated with peptides for 5 min and FcεRI was clustered by incubating with 5 ng/ml DNP11-BSA at 37° C. for 2 min. The reaction was terminated by 500 μl lysis buffer (1% Triton X-100, 50 mM HEPES, 100 mM NaF, 10 mM EDTA, 2 mM sodium orthovanadate, 10% glycerol, 10 mM sodium pyrophosphate, protease inhibitor cocktail 1:200, pH 7.4) per dish. The cells were scraped and the protein content of the post nuclear supernatants was adjusted to equal values using the Bradford-assay prior to precipitation by PT-66 phosphotyrosine specific antibody coated beads (10 μl beads per sample). The proteins were eluted by sample buffer containing 2-mercaptoethanol and were separated by SDS-PAGE, electrotransferred onto a nitrocellulose membrane and developed using the indicated antibodies and detected by ECL.
as §1, §2

[6] = tested on: PAG; test: PAG phosphorylation in RBL-2H3 cells; type: cell-based, rat
Protocol: (§3) The inhibitory action of the peptide C3a31 on the FcεRI coupling cascade was also investigated using the rat mucosal-type RBL-2H3 line. Results of these experiments have shown that peptide C3a31 inhibited the phosphorylation of the protein tyrosine kinase Lyn and of the FcεRI β-chain. The inhibition on Lyn phosphorylation was observed after 1 min, and that on PAG phosphorylation (PAG has an important role in the regulation of src family kinases) after 3 min. However, C3a31 was also shown to enhance Lyn phosphorylation after 3 min. In addition, C3a31 inhibited Dok-1 phosphorylation after 5 min, but had no effect after 8 min.

[7] = tested on: PLCγ-2; test: PLCγ-2 phosphorylation in RBL-2H3 cells; type: cell-based, rat
[8] = tested on: ovalbumin-sensitized asthmatic mice; test: Murine asthma model, lung function by plethysmography; type: in vivo, mouse; details: peptide aerosol prior to final ovalbumin challenge
Protocol: (§4) Inhibitory effect of the peptides on pulmonary functions. Mice (Balb/c, female, 8 weeks old) were first sensitized by ip injection of the antigen (Ag) ovalbumin. Thereafter, the mice were challenged 4 times by aerosol inhalation of the same Ag dispersed by nebulizer in a plexiglass chamber for about 20 min at one-week intervals. On day 28, the mice were first treated with an aerosol of the tested peptides dissolved in 0.1 M NaHCO3 and dispersed as above. As a result, the aerosol was inhaled by the animals for about 10 to 20 minutes. After inhalation, the animals were immediately challenged by inhalation (as above) of the sensitizing antigen (5% OVA in PBS) for 20 min. At the end of this treatment, the mice were immediately tested for pulmonary functions in conscious, freely moving state using plethysmography.
The degree of bronchial constriction was monitored by the enhanced pause and its relation to airway resistance, impedance and intrapleural pressure in the mouse. Bronchoalveolar lavage (BAL) samples were obtained from these mice by cannulating the trachea, injecting 0.8 ml ice-cold saline (×2) and subsequently aspirating the BAL fluid. Following these tests, mice were sacrificed using general anesthesia with brevital (1 mg/ml). Their chests wall were opened, blood withdrawn and lungs were perfused with cold PBS and examined for cytology and histology. […]

[9] = tested on: ovalbumin-sensitized asthmatic mice; test: Murine asthma model, cell distribution in broncho alveolar lavage; type: in vivo, mouse
Protocol: as §4
The degree of bronchial constriction was monitored by the enhanced pause and its relation to airway resistance, impedance and intrapleural pressure in the mouse. Bronchoalveolar lavage (BAL) samples were obtained from these mice by cannulating the trachea, injecting 0.8 ml ice-cold saline (×2) and subsequently aspirating the BAL fluid. Following these tests, mice were sacrificed using general anesthesia with brevital (1 mg/ml). Their chests wall were opened, blood withdrawn and lungs were perfused with cold PBS and examined for cytology and histology.
Table 3 provides results of analysis of the cells present in bronchi alveolar lavage (BAL) of mice treated by the same protocols as those subjected to analysis of lung function.

[10] = tested on: Dok-1; test: Dok-1 phosphorylation in RBL-2H3 cells; type: cell-based, rat
Protocol: as §3

For “CCNYG (derived from human sequence) [C3a13]”, the “Inhibition of IgE-mediated β-hexosaminidase release from RBL-2H3 cells” value (shortened to “Inhibition … from RBL-2H3 cells”) [1] was “shown to inhibit”.
With “D-Ala-D-Ala-Asp-Ser-Ser-Asn-Tyr-Ile-Thr-Arg-NH2 ([dA][dA]DSSNYITR-NH2; N-terminus assumed; SMILES CC[C@H](C)[C@H](NC(=O)[C@H](Cc1ccc(O)cc1)NC(=O)[C@H](CC(N)=O)NC(=O)[C@H](CO)NC(=O)[C@H](CO)NC(=O)[C@H](CC(=O)O)NC(=O)[C@@H](C)NC(=O)[C@@H](C)N)C(=O)N[C@H](C(=O)N[C@@H](CCCNC(=N)N)C(N)=O)[C@@H](C)O) [C3a32]” the “Inhibition of IgE-mediated β-hexoseaminidase secretion from RBL-2H3 (FIG. 1B)” value [1] was “found to inhibit”.
DSSNYIR [C3a11] was tested, and the “Inhibition … from RBL-2H3 cells” value [1] was “shown to inhibit”.
With “DVSNYITR [Control peptide, reference compound]” the “Inhibition of IgE-mediated secretory response of BMMC” value [2] was “had no effect”, the “Inhibitory effect (IC50) on the IgE-mediated degranulation of BMMC” value ([2]; suboptimal antigen-dose) was “No effect” and the “Inhibition … from RBL-2H3 cells” value [1] was “had no effect”. For the same substance, the “Inhibitory effect (IC50) on the IgE-mediated degranulation of RBL-2H3” value ([1]; suboptimal antigen-dose) was “No effect” and the “Phosphorylation of Lyn” value [3] was “had no effect”.
“RTIYNSSDS (RTIYNSSDS-NH2) [C3a55, reference compound]” was tested, and the “Symptoms of passive systemic anaphylaxis, histamine levels in mice blood” value [4] was “ineffective”.
With “Ser-Asp-Ser-Ser-Asn-Tyr-Ile-Thr-Arg-NH2 (SDSSNYITR-NH2) [C3a31]” the “Phosphorylation of the FcεRI β chain” value [5] was “inhibited”, the “PAG phosphorylation after 3 min” value [6] was “inhibition” and the “Phosphorylation of PLCγ-2” value [7] was “inhibited”. For the same substance, the “Antigen-induced symptoms (lung airway resistance) in asthma model” value [8] was “effective in reducing”, the “Eosinophils in BAL” value ([9]; OVA + peptide aerosol) was 4% and the “Lymphocutes in BAL” value ([9]; OVA + peptide aerosol) was 81%. For the same substance, the “Macrophages in BAL” value ([9]; OVA + peptide aerosol) was 1%, the “Mast Cells in BAL” value ([9]; OVA + peptide aerosol) was 4% and the “Neutrophils in BAL” value ([9]; OVA + peptide aerosol) was 13%. The “Type of cells detected in the BAL” value ([9]; peptide aerosol treatment) was “markedly affected”, the “Dok-1 phosphorylation after 5 min” value ([10]; after 5 min) was “inhibited” and the “Dok-1 phosphorylation after 8 min” value ([10]; after 8 min) was “had no effect”. The “Inhibition of IgE-mediated β-hexoseaminidase secretion from RBL-2H3 (FIG. 1B)” value [1] was “found to inhibit”, the “Lyn phosphorylation after 1 min” value ([3]; after 1 min) was “inhibition” and the “Lyn phosphorylation after 3 min” value ([3]; after 3 min) was “enhance”. The “Phosphorylation of Lyn” value [3] was “inhibited” and the “Symptoms of passive systemic anaphylaxis, histamine levels in mice blood” value [4] was “found to reduce”.
